The IC50 is the concentration at which inhibition is half-maximal.

Where two headings read alike, the source gives them in different places.

The source of these data is patent publication EP3442964B1, “NOVEL N-[(PYRIMIDINYLAMINO)PROPANYL]-AND N [(PYRAZINYLAMINO)PROPANYL]ARYLCARBOXAMIDES” (Boehringer Ingelheim International GmbH, priority 2016, dated 2017).

Data set [1] in a line: Assay C: metabolic stability in human liver microsomes (human MST). Type of data set: in vitro ADME. The following applies: pooled human liver microsomes, pH 7.6, 1 µM test compound, 37°C. The source says: Stability in human liver microsomes refers to the susceptibility of compounds to biotransformation in the context of selecting and/or designing drugs with favorable pharmacokinetic properties. The primary site of metabolism for many drugs is the liver. Human liver microsomes contain the cytochrome P450s (CYPs), and thus represent a model system for studying drug metabolization in vitro. Enhanced stability in human liver microsomes is associated with several advantages, including increased bioavailability and longer half-life, which can enable lower and less frequent dosing of patients. Thus, enhanced stability in human liver microsomes is a favorable characteristic for compounds that are to be used for drugs.
The metabolic stability of the compounds according to the invention may be investigated as follows: The metabolic degradation of the test compound is assayed at 37°C with pooled human liver microsomes. The final incubation volume of 100 µL per time point contains TRIS buffer pH 7.6 at room temperature (0.1 M), MgCl2 (5 mM), microsomal protein (1 mg/mL) and the test compound at a final concentration of 1 µM. Following a short pre-incubation period at 37°C , the reactions are initiated by addition of beta-nicotinamide adenine dinucleotide phosphate, reduced form (NADPH, 1 mM), and terminated by transferring an aliquot into solvent after different time points. After centrifugation (10000 g, 5 min), an aliquot of the supernatant is assayed by LC-MS/MS for the amount of parent compound. The half-life (t1/2) is determined by the slope of the semi-logarithmic plot of the concentration-time profile.
In general terms: Microsomes from liver hold many membrane-bound enzymes, among them those of drug oxidation.

Data set [2] deals with T1, OX2R (Homo sapiens, UniProt O43614).
T1 sequence (O43614 1-444): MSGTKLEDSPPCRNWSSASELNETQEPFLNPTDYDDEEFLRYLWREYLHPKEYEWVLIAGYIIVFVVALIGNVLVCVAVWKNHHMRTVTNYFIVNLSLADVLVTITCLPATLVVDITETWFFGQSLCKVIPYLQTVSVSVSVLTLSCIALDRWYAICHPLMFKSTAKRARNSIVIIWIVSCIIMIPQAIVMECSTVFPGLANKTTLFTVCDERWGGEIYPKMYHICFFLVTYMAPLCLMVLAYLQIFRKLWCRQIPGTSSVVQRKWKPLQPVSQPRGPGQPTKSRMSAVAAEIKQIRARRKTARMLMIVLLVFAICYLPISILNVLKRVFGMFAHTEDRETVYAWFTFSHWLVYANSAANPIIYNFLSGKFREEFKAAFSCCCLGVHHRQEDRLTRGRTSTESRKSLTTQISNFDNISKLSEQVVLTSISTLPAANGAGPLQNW
The following applies: as described in WO2013/187466; agonist 3 nM modified orexin A; cited from earlier work.

Another data set deals with T2, human MDR1 P-gp (Homo sapiens, UniProt P08183).
T2 construct: expressed in transfected cells; host or cells: MDCK (MDCK-MDR1)
Kind of data set: Assay D: efflux in MDCK cells transfected with the human MDR1 gene. The class given is in vitro ADME. The following applies: MDCK-MDR1 monolayers, pH 7.4, 37°C, read-out: Assay D:MDCK efflux ratio (BA/AB). As for the experimental part: The MDCK assay provides information on the potential of a compound to pass the blood brain barrier. Permeability measurements across polarized, confluent MDCK-MDR1 cell monolayers grown on permeable filter supports are used as an in vitro absorption model: apparent permeability coefficients (PE) of the compounds across the MDCK-MDR1 cell monolayers are measured (pH 7.4, 37°C) in apical-to-basal (AB) and basal-to-apical (BA) transport direction. The AB permeability (PEAB) represents drug absorption from the blood into the brain and the BA permeability (PEBA) drug efflux from the brain back into the blood via both, passive permeability as well as active transport mechanisms mediated by efflux and uptake transporters that are expressed on the MDCK-MDR1 cells, predominantly by the overexpressed human MDR1 P-gp. Identical or similar permeabilities in both transport directions indicate passive permeation, vectorial permeability points to additional active transport mechanisms. Higher PEBA than PEAB (PEBA/PEAB > 5) indicates the involvement of active efflux mediated by MDR1 P-gp, which might compromises the goal to achieve sufficient brain exposure. Therefore this assay provides valuable support for selection of compounds applicable for further in vivo testing. High permeability not limited by efflux at the blood brain barrier is a favourable characteristic for compounds that are to be used for drugs acting primarily in the CNS
Apparent permeability coefficients (PE) of the compounds across the MDCK-MDR1 cell monolayers are measured (pH 7.4, 37°C) in apical-to-basal (AB) and basal-to-apical (BA) transport direction. AB permeability (PEAB) represents drug absorption from the blood into the brain and BA permeability (PEBA) drug efflux from the brain back into the blood via both passive permeability as well as active transport mechanisms mediated by efflux and uptake transporters that are expressed on the MDCK-MDR1 cells, predominantly by the overexpressed human MDR1 P-gp. The compounds are assigned to permeability/absorption classes by comparison of the AB permeabilities with the AB permeabilities of reference compounds with known in vitro permeability and oral absorption in the human. Identical or similar permeabilities in both transport directions indicate passive permeation, vectorial permeability points to additional active transport mechanisms. Higher PEBA than PEAB indicates the involvement of active efflux mediated by MDR1 P-gp. Active transport is concentration- dependently saturable.
MDCK-MDR1 cells (1-2 x 10e5 cells/1 cm2 area) are seeded on filter inserts (Costar transwell polycarbonate or PET filters, 0.4 µm pore size) and cultured (DMEM) for 7 days. Subsequently, the MDR1 expression is boosted by culturing the cells with 5 mM sodium butyrate in full medium for 2 days. Compounds are dissolved in appropriate solvent (like DMSO, 1 -20 mM stock solutions). Stock solutions are diluted with HTP-4 buffer (128.13 mM NaCl, 5.36 mM KCI, 1 mM MgSO4, 1.8 mM CaCl2, 4.17 mM NaHCO3, 1.19 mM Na2HPO4 x 7H2O, 0.41 mM NaH2PO4xH2O, 15 mM HEPES, 20 mM glucose, 0.25 % BSA, pH 7.4) to prepare the transport solutions (0.1 - 300 µM compound, final DMSO <= 0.5 %). The transport solution (TL) is applied to the apical or basolateral donor side for measuring A-B or B-A permeability (3 filter replicates), respectively. The receiver side contains the same buffer as the donor side. Samples are collected at the start and end of experiment from the donor and at various time intervals for up to 2 hours also from the receiver side for concentration measurement by HPLC-MS/MS or scintillation counting. Sampled receiver volumes are replaced with fresh receiver solution.

In data set [3] the target is T3, OX1R (Homo sapiens, UniProt O43613).
T3 sequence (O43613 1-425): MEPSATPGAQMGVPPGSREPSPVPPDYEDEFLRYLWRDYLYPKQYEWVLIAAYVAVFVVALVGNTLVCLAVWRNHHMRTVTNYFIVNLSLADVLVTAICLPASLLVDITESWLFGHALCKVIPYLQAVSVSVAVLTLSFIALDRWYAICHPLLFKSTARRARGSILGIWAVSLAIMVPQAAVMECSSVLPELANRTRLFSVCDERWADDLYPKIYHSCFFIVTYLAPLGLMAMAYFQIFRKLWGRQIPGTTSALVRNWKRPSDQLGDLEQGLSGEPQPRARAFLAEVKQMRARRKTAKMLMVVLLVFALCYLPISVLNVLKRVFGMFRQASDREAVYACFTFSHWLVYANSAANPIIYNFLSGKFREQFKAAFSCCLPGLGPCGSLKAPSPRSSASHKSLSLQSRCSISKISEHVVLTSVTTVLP
The data set can be described thus: OX1R assay as described in WO2016/034882.

The target of data set [4] is T3, OX1R. The following applies: cited from earlier work.
The target in data set [5] is T1, OX2R. The following applies: cited from earlier work.
The target in a further data set is T4, human orexin 2 receptor (Homo sapiens, UniProt O43614).
T4 sequence (O43614 1-444): T1 sequence (O43614 1-444)
The class given is cell-based. The following applies: 0.5 nM Orexin A. The source says: Chem. Genomics 2009, 3, 22-32.

[6] abbreviates: read-out: Assay C: Human MST t1/2.
The mark [7] stands for this setting: from values of Table 3 of WO2016/034882.
[8] abbreviates: corresponds to pIC50 of Table 3 of WO2016/034882.
[9] abbreviates: corresponds to pIC50 of Table 1 of WO2016/034882.

T2 sequence (P08183 whole entry): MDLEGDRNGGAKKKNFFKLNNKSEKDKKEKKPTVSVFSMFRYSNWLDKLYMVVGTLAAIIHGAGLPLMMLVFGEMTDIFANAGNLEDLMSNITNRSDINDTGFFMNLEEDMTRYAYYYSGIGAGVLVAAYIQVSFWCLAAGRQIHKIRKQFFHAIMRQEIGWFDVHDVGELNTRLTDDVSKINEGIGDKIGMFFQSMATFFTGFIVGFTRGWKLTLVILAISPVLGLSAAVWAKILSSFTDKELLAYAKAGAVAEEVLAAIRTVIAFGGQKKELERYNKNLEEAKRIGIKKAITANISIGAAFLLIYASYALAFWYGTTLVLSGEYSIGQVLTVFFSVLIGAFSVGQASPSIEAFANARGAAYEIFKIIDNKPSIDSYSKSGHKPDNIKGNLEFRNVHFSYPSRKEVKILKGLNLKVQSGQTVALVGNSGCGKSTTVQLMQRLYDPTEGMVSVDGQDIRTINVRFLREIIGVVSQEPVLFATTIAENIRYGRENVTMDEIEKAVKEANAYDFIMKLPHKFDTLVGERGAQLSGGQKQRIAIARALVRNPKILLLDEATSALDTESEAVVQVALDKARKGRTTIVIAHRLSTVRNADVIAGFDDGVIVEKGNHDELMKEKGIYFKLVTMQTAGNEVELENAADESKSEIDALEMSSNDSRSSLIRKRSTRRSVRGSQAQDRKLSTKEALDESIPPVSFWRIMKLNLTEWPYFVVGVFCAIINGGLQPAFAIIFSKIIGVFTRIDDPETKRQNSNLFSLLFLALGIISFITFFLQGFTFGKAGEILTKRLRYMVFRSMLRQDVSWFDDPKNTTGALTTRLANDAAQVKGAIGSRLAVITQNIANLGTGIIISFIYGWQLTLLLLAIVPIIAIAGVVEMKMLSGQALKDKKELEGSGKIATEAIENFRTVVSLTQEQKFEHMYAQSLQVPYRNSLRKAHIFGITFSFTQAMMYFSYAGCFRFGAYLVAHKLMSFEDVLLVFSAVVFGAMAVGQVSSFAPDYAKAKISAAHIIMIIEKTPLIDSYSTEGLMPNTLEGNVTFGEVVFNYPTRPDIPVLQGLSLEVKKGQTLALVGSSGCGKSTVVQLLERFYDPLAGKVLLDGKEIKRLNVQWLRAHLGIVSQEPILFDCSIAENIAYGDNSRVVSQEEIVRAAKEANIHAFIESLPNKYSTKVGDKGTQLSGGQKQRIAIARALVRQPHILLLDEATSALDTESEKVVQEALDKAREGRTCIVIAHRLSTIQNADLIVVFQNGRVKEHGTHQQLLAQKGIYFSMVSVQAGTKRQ

As to `C[C@@H](Cn1ccc(-c2ccc(F)cn2)n1)N(C)C(=O)c1cc(F)ccc1-c1ncccn1` [Example 5 in WO2013/187466, reference compound], the half-life at 1 µM in data set [1] (read-out: Data as determined in Assay C: Human MST t1/2) amounted to 30 min. The IC50 at OX2R [2] was 76 nM.

`CC[C@@H](CNc1ncc(C(F)(F)F)cn1)N(C)C(=O)c1c(F)cccc1-n1nccn1` [Example 91 in WO2016/034882]: the half-life at 1 µM in data set [1] (setting [6]) is greater than 120 min. In addition, the efflux ratio at human MDR1 P-gp was less than 3. For the same compound, the “OX2R IC50/OX1R IC50” value at OX1R [3] (setting [7]) is listed as “Table 3: 318”. Besides, the results for the IC50 on OX1R [4] (setting [8]) and on OX2R [5] (setting [8]) were 25 nM and no less than 7950 nM, respectively. In addition, the “OX2R pIC50” value on OX2R [5] (Table 3 of WO2016/034882) is listed as less than 5.1.

Turning to `CC[C@@H](CNc1cnc(C(F)(F)F)cn1)N(C)C(=O)c1cc(Cl)ccc1-n1nccn1` [Example 40 in WO2016/034882], the half-life at 1 µM in data set [1] (setting [6]) worked out at 9 min. Also, the efflux ratio on human MDR1 P-gp was less than 3. The “OX2R IC50/OX1R IC50” value at OX1R [3] (from values of Table 1 of WO2016/034882) is recorded as “Table 1: 156”. Further, the IC50 at OX1R [4] (setting [9]) was 16 nM; on OX2R [5] (setting [9]), 2500 nM.

The compound `CC[C@@H](CNc1ncc(C(F)(F)F)cn1)N(C)C(=O)c1nc(C)ccc1-n1cccn1` [Example 90 in WO2016/034882] yielded a Kb at human orexin 2 receptor of 974 nM. Besides, the half-life at 1 µM in data set [1] (setting [6]) was 26 min. Besides, the efflux ratio on human MDR1 P-gp was less than 3. Further, the “OX2R IC50/OX1R IC50” value on OX1R [3] (setting [7]) was “Table 3: >526”. Besides, the IC50 at OX1R [4] (setting [8]) was 1.9 nM; on OX2R [5] (setting [8]), greater than 1000 nM. The “OX2R pIC50” value at OX2R [5] (Table 3 of WO2016/034882) is recorded as less than 6.0.

On to `CC[C@@H](CNc1ncc(C(F)(F)F)cn1)N(C)C(=O)c1nc(C)ccc1-n1nccn1` [Example 46 in WO2016/034882], for which the half-life at 1 µM in data set [1] (setting [6]) turned out to be 32 min. Moreover, the efflux ratio on human MDR1 P-gp is less than 3. For the same compound, the concentration for half-maximal inhibition (IC50) is 20 nM at OX1R [4] (setting [9]), greater than 10000 nM on OX2R [5] (corresponds to pIC50 of Table 2 of WO2016/034882) and no less than 10000 nM on OX2R [5] (setting [8]). For the same compound, the “OX2R pIC50” value on OX2R [5] (Table 1 of WO2016/034882) is listed as 5.1; at OX2R [5] (Table 2 of WO2016/034882), less than 5.0; at OX2R [5] (Table 3 of WO2016/034882), less than 5.0.
